This passage reports EC (150% of control) and melting point results from US9284321B2, “Piperazino[1,2-a]indol-1-ones and [1,4]diazepino[1,2-a]indol-1-one” (Hoffmann-La Roche Inc., priority 2012, dated 2016).

The test system of data set [1] is human embryonic stem cell derived neural stem cells (NSCs). As to the kind of experiment: Neural Stem Cell Proliferation Assay (neurogenesis assay, ATP levels by CellTiterGlo). It is filed as cell-based. To be noted: 96 h, compound concentration at which 150% activity of control (100%) is reached, NSC proliferation by ATP level after 4 days incubation, dose response 8 μM to 8 nM. In short, it runs like this: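 Read-out is CellTiterGlo ATP luminescence after 4-day culture (37 °C, 5% CO2) of dual-SMAD-derived human ESC NSCs, dosed 4 h post-seeding at 8 μM to 8 nM (11 points, 2-fold). EC150 marks the concentration reaching 150% of the media-only control (0.25% DMSO).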

The compound `COc1ccc(-c2cc(F)cc3cc4n(c23)[C@H](C)CNC4=O)cc1` [Example 5, (R)-8-Fluoro-6-(4-methoxy-phenyl)-4-methyl-3,4-dihydro-2H-pyrazino[1,2-a]indol-1-one] returned a melting point of 228.5 °C. The compound further registered an EC (150% of control) in data set [1] of 0.034 µM.
`O=C1NCCn2c1cc1c(F)c(F)cc(-c3ccc(F)c(F)c3)c12` [Example 35, 6-(3,4-Difluoro-phenyl)-8,9-difluoro-3,4-dihydro-2H-pyrazino[1,2-a]indol-1-one] showed a melting point of 317.5 °C. In data set [1], this compound registered an EC (150% of control) of 2.6 µM.
The like results for `COc1ncc(-c2cc(Cl)cc3c(C)c4n(c23)CCNC4=O)cn1` [Example 142, 8-Chloro-6-(2-methoxy-pyrimidin-5-yl)-10-methyl-3,4-dihydro-2H-pyrazino[1,2-a]indol-1-one] were, in that order, 270.5 °C and 0.039 µM.
The like results for `Cc1c2n(c3c(-c4ccc(Cl)c(C(F)(F)F)c4)cc(Cl)cc13)CCNC2=O` [Example 135, 8-Chloro-6-(4-chloro-3-trifluoromethyl-phenyl)-10-methyl-3,4-dihydro-2H-pyrazino[1,2-a]indol-1-one] were, in that order, 268 °C and 0.036 µM.
On to `Cc1c2n(c3c(-c4ccc(N(C)C)nc4)cc(F)cc13)CCNC2=O` [Example 158, 6-(6-Dimethylamino-pyridin-3-yl)-8-fluoro-10-methyl-3,4-dihydro-2H-pyrazino[1,2-a]indol-1-one], for which the melting point came to 259 °C. The compound further yielded an EC (150% of control) in data set [1] of 0.012 µM.
The like results for `C[C@@H]1CNC(=O)c2cc3cc(F)cc(-c4ccncc4)c3n21` [Example 7, (R)-8-Fluoro-4-methyl-6-pyridin-4-yl-3,4-dihydro-2H-pyrazino[1,2-a]indol-1-one] were, in that order, 294.5 °C and 0.4 µM.
`Cc1c2n(c3c(-c4ccc(Cl)nc4)cc(C#N)cc13)CCNC2=O` [Example 278, 6-(6-Chloropyridin-3-yl)-10-methyl-1-oxo-3,4-dihydro-2H-pyrazino[1,2-a]indole-8-carbonitrile]: the melting point turned out to be 318 °C. Further, the EC (150% of control) in data set [1] turned out to be 0.44 µM.
In the same order, the values of `Cc1ccc(-c2cc(C#N)cc3cc4n(c23)CCNC4=O)cc1F` [Example 233, 6-(3-Fluoro-4-methylphenyl)-1-oxo-3,4-dihydro-2H-pyrazino[1,2-a]indole-8-carbonitrile] are 278.5 °C and 0.052 µM.
With `C[C@@H]1CNC(=O)c2cc3cc(F)cc(-c4cccc(F)c4)c3n21` [Example 14, (R)-8-Fluoro-6-(3-fluoro-phenyl)-4-methyl-3,4-dihydro-2H-pyrazino[1,2-a]indol-1-one], the melting point was determined as 232 °C. The same compound came in with an EC (150% of control) in data set [1] of 0.34 µM.
The like results for `Cc1c2n(c3c(-c4cccc(F)c4)cc(F)cc13)CCNC2=O` [Example 87, 8-Fluoro-6-(3-fluoro-phenyl)-10-methyl-3,4-dihydro-2H-pyrazino[1,2-a]indol-1-one] were, in that order, 222 °C and 0.1 µM.
In the same order, the values of `Cc1ccc(-c2cc(F)cc3cc4n(c23)[C@H](C)CNC4=O)cc1` [Example 8, (R)-8-Fluoro-4-methyl-6-p-tolyl-3,4-dihydro-2H-pyrazino[1,2-a]indol-1-one] are 294.5 °C and 0.048 µM.
The like results for `COc1cc(-c2ccc(Cl)cc2)c2c(c1)cc1n2CCNC1=O` [Example 211, 6-(4-Chlorophenyl)-8-methoxy-3,4-dihydro-2H-pyrazino[1,2-a]indol-1-one] were, in that order, 246 °C and 1.54 µM.
As for `Cc1c2n(c3c(-c4ccc(C(F)(F)F)cc4)cc(Cl)cc13)CCNC2=O` [Example 90, 8-Chloro-10-methyl-6-(4-trifluoromethyl-phenyl)-3,4-dihydro-2H-pyrazino[1,2-a]indol-1-one], the melting point worked out at 260.5 °C. Also, in data set [1], the EC (150% of control) was 0.017 µM.
